PubChem BioAssay (NCI)
Where “and” joins values, the source holds several entries; their conditions need not be identical. Identical values can stand only once.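 The compound was tested at five concentrations on cells cultured in 96-well plates, with a 48-hour exposure period. GI50 marks 50% less growth. TGI: total growth inhibition.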

How the values were obtained:
Experiment in all cases: NCI tumour cell line growth inhibition, 48 h
DLD-1 colon = tested on: DLD-1 colon
DMS 114 small cell lung = tested on: DMS 114 small cell lung
DMS 273 small cell lung = tested on: DMS 273 small cell lung
KM20L2 colon = tested on: KM20L2 colon
M19-MEL melanoma = tested on: M19-MEL melanoma
XF 498 CNS = tested on: XF 498 CNS
HOP-18 NSCLC = tested on: HOP-18 NSCLC
MDA-N = tested on: MDA-N
RXF-631 renal = tested on: RXF-631 renal
P388 leukemia = tested on: P388 leukemia
P388/ADR leukemia = tested on: P388/ADR leukemia
SN12K1 renal = tested on: SN12K1 renal

Structure (SMILES)	TGI (DLD-1 colon) [µM]	TGI (DMS 114 small cell lung) [µM]	TGI (DMS 273 small cell lung) [µM]	TGI (KM20L2 colon) [µM]	TGI (M19-MEL melanoma)	TGI (XF 498 CNS)	TGI (HOP-18 NSCLC) [µM]	TGI (MDA-N) [µM]	TGI (RXF-631 renal) [µM]	further results
O=C(c1ccc([N+](=O)[O-])cc1[N+](=O)[O-])N(/N=C/C=C/c1ccccc1)c1nnc(-c2ccccc2)c(-c2ccccc2)n1	> 100	> 100	72.6	> 100	> 100 µM	42.3 µM	–	–	–	–
CCOC(=O)Cc1csc(Nc2ccccc2[N+](=O)[O-])n1	–	> 100	> 100	> 100	> 100 µM	–	> 100	–	–	–
COc1c2occc2c(N)c2ccc(=O)oc12	–	–	–	–	–	–	–	> 100	–	–
Cc1nc2c(N)ncnc2o1	> 100	> 100	> 100	> 100	> 100 µM	–	> 100	–	> 100	–
O=c1[nH]c(=O)n(C2CC(O)C(CO)O2)cc1OS(=O)(=O)C(F)(F)F (stereo not drawn)	> 100	> 100	> 100	> 100	> 100 µM	> 100 µM	> 100	–	> 100	–
CC1=C(C(=O)Nc2ccccc2)C(c2ccc(Cl)c(Cl)c2)C(C(=O)Nc2ccccc2)=C(C)N1	25.7	24.8	27.5	29.8	25.6 µM	30.6 µM	–	–	27.7	–
CSC[C@H](NC(=O)COc1cccc2cnccc12)C(=O)NC(Cc1ccccc1)C(O)C(=O)N1CSC[C@H]1C(=O)NC(C)(C)C (stereo partly drawn)	–	–	–	–	–	–	–	> 100	–	–
Nc1nc(Cl)nc2c1ncn2C1CC(O)C(CO)O1 (stereo not drawn)	> 100	–	47.1	> 100	> 100 µM	–	> 100	–	–	TGI (P388 leukemia): 498 nM; TGI (P388/ADR leukemia): > 100 µM; TGI (SN12K1 renal): > 24.9 µM
O=[N+]([O-])c1cccnc1N=Nc1c(O)[nH]c2ccccc12	–	–	–	–	–	–	–	> 100	–	–
Cc1cc(C)nc(NS(=O)(=O)c2ccc(Nc3c4ccccc4nc4c(C(=O)N5CCN(CCO)CC5)cccc34)cc2)n1	> 100	> 100	> 100	> 100	> 100 µM	> 100 µM	> 100	–	–	–
CCOC(=O)C(Br)=C1OC(=O)c2ccccc2-c2ccccc21 (mixture of isomers)	36.4	32.2	29	–	31 µM	38.5 µM	51.4	–	49.9	–
COC(=O)c1c(C)cc(OC)c(C/C=C(\C)CCCc2coc(C=C(C)C)c2)c1OC	–	–	–	–	–	–	–	> 100	–	–
CCOc1ccc(OCC(=O)O)c2c1CCCC2=O	> 100	> 100	> 100	–	> 100 µM	> 100 µM	–	–	> 100	–
O=C1C/C(Br)=C\c2ccccc2-c2ccccc21	2.92	6.58	7.65	8.28	4.65 µM	3.7 µM	16.8	–	–	–
Cc1cc(C(=O)CSC(=S)SC(C)(C)C)ccc1Cl	–	–	–	–	–	–	–	36.8	–	–
c1ccc2c(c1)CCc1c(-c3ccncc3)n[nH]c1-2	> 100	51.7	52.1	45.9	72.8 µM	22.5 µM	–	–	–	–
COc1cc(C[P+](c2ccccc2)(c2ccccc2)c2ccccc2)cc(OC)c1OC	> 100	> 100	> 100	> 100	> 100 µM	> 100 µM	–	–	–	–
CCCCCCCCCCCC[N+]12CC[N+](CCN)(CC1)CC2	> 100	> 100	31.9	> 100	> 100 µM	> 100 µM	> 100	–	> 100	–
C/C(=N\NC(N)=O)c1sc(-c2nc(C)c(/C(C)=N/NC(N)=O)s2)nc1C	> 100	–	49.6	> 100	> 100 µM	> 100 µM	> 100	–	–	–
CC(C)C1CN(C(=O)OCc2ccccc2)C2N1C(=O)C2(C)OCc1ccccc1 (stereo not drawn)	> 100	> 100	> 100	> 100	> 100 µM	33.5 µM	–	–	> 100	–
CCCCNCCCNCCCNC(=O)c1csc(-c2csc(CCNC(=O)C(NC(=O)C(C)C(O)C(C)NC(=O)C(NC(=O)c3nc(C(CC(N)=O)NCC(N)C(N)=O)nc(N)c3C)C(OC3OC(CO)C(O)C(O)C3OC3OC(CO)C(O)C(OC(N)=O)C3O)c3cnc[nH]3)C(C)O)n2)n1 (stereo not drawn)	> 100	8.73	2.97	> 100	> 100 µM	–	> 100	–	> 100	–
CC(C)=CCC1=C(O)c2ccccc2C(=O)C1=O	–	> 100	> 100	> 100	> 100 µM	> 100 µM	> 100	> 100	> 100	GI50 (DMS 273 small cell lung): 37.8 µM and 9.15 µM; GI50 (KM20L2 colon): > 100 µM and 48.9 µM; GI50 (M19-MEL melanoma): 48.5 µM and 20.8 µM
C[N+](C)(C)CC(=O)N/N=C(/Cc1cc(=O)oc2cc(O)ccc12)C(=O)Nc1ccc(Cl)cc1	> 100	> 100	–	> 100	> 100 µM	–	–	–	> 100	–
COc1cc2c3c(n(C)c(=O)c2cc1OC)-c1cc2c(cc1C3=O)OCO2	–	–	–	–	–	–	–	> 100	–	–

Structure (SMILES)	TGI (DLD-1 colon) [µM]	TGI (DMS 114 small cell lung) [µM]	TGI (DMS 273 small cell lung) [µM]	TGI (KM20L2 colon) [µM]	TGI (M19-MEL melanoma)	TGI (XF 498 CNS)	TGI (HOP-18 NSCLC) [µM]	TGI (MDA-N) [µM]	TGI (RXF-631 renal) [µM]	further results
CN1Nc2ccccc2CC1=O	> 100	> 100	> 100	> 100	> 100 µM	> 100 µM	> 100	–	–	–
COc1cc(OC)c(OC)cc1/C=N/NC(=O)N/N=C/c1cc(OC)c(OC)cc1OC	–	> 100	> 100	> 100	> 100 µM	> 100 µM	> 100	–	–	–
COc1c(C)c(OCC=C(C)C)cc(CO)c1CO	–	–	–	–	–	–	–	> 100	–	–
CC12c3ccccc3C(OC=O)(c3ccccc31)C1(C)c3ccccc3C2(OC=O)c2ccccc21	> 100	> 100	> 100	> 100	> 100 µM	–	> 100	–	> 100	–
CCCCCCCCc1cc2c(O)c(c1)Cc1cc(CCCCCCCC)cc(c1O)Cc1cc(CCCCCCCC)cc(c1O)Cc1cc(CCCCCCCC)cc(c1O)Cc1cc(CCCCCCCC)cc(c1O)Cc1cc(CCCCCCCC)cc(c1O)C2	> 100	> 100	–	> 100	–	> 100 µM	> 100	–	> 100	–
NC(=S)N/N=C/c1ncccc1O	> 774	–	5.96	76.5	16.9 µM and 39.7 µM	39.7 µM and 5.52 µM	141	> 853	–	GI50 (DLD-1 colon): 3.79 µM; GI50 (KM20L2 colon): 3.74 µM; GI50 (M19-MEL melanoma): 3.48 µM; GI50 (MDA-N): 1900 nM; TGI (P388 leukemia): 1260 nM; TGI (P388/ADR leukemia): > 1000 µM; TGI (SN12K1 renal): 13.7 µM; GI50 (XF 498 CNS): 4.88 µM
CNc1nc(N)nc(Nc2ccc(I)cc2)c1N=O	–	–	–	–	–	–	–	> 100	–	–
COc1ccc(/C=C\c2cc(OC)c(OC)c(OC)c2)cc1OCC(=O)O	> 90.2	> 100	75.1	> 100	> 100 µM	–	> 100	13.5	> 100	–
O=C1c2cccc3cccc(c23)C(=O)N1CCN(CCO)CCO	> 100	–	66.3	56.6	43.8 µM	66.5 µM	> 100	–	> 100	–
O=[N+]([O-])c1ccccc1N=Nc1c(O)[nH]c2c(Cl)cc(Cl)cc12	–	–	–	–	–	–	–	> 100	–	–
COc1ccc2c(=O)oc3c(OC)cc(CCN(C)C)c4c(=O)oc1c2c34	39.4	24.9	31.5	28.1	28.1 µM	–	27.6	14.8	–	–
O/N=C1\CCCCC1C(NO)c1ccccc1 (stereo not drawn)	> 100	> 100	> 100	> 100	> 100 µM	–	> 100	–	> 100	–
Cc1cc2c(cc1C)[n+](=O)cc(C(=O)C/C(=N/NC(=S)NN)C(=O)Nc1cccc(C(F)(F)F)c1)n2[O-]	> 100	> 100	> 100	–	> 100 µM	–	> 100	–	> 100	–
CN(Cc1cnc2nc(N)nc(N)c2n1)c1ccc(C(=O)N[C@@H](CCS(=O)(=O)O)C(=O)O)cc1	–	–	–	–	–	–	–	> 100	–	–
O=S(=O)(OI(OI(OS(=O)(=O)C(F)(F)F)c1ccccc1)c1ccccc1)C(F)(F)F	> 100	55	> 100	> 100	> 100 µM	–	–	–	–	–
O=C1C=C(Nc2ccc(Cl)cc2C(=O)c2ccccc2)c2ccccc2C1=O	> 100	> 100	> 100	> 100	–	> 100 µM	> 100	–	> 100	–
CCCCCCCC(=O)OCC1OC(n2cc(F)c(=O)[nH]c2=O)C(N)C(OC(=O)CCCCCCC)C1O (stereo not drawn)	–	–	30.8	33.7	36 µM	–	–	–	–	–
CCCCCCCCSC1=C(Cl)C(=O)C(OC)=C(OC)C1=O	–	–	–	–	–	–	–	17.6	–	–
CC[C@@H]1NC(C(=O)OC)Cc2c1[nH]c1ccccc21 (stereo partly drawn)	> 100	> 100	> 100	> 100	> 100 µM	–	> 100	–	> 100	–
CC(=O)N/C(=C\c1ccccc1/C=C(\NC(C)=O)c1nc2cc(C)c(C)cc2[nH]1)c1nc2cc(C)c(C)cc2[nH]1	56.5	11.2	47.6	> 100	85.8 µM	32.9 µM	–	–	–	–
O=Cc1cc2c(cc1-c1cc3c(cc1C=O)OCO3)OCO2	> 100	> 100	> 100	> 100	> 100 µM	–	> 100	–	–	–
O=C1C=C(c2c(O)ccc3ccccc23)c2cc(O)ccc2C1=O	37.6	19.6	30.8	38.7	9.68 µM	23.3 µM	43.8	–	–	–
